What was measured:
[1] = test system: crude, desalted homogenates from pea seedlings; assay: Adenylate metabolism pathway in a crude plant homogenate; type: in vitro ADME, Peas (Pisum sativum L var Onward); details: without ATP, 10 minutes at 25° C.
Method: Peas (Pisum sativum L var Onward) were grown in soil for 10 days at 25° C. with a 16 hour/8 hour light/dark cycle. The seedlings were harvested close to soil level and a crude homogenate of was prepared by homogenization in 2 volumes of ice cold buffer containing tris-HCl (0.1M, pH 7.4 with 5M NaOH), 0.1 mM dithiothreitol and 0.4M sucrose using a Waring blender (1 minute, top speed). The homogenate was passed through 6 layers of muslin and 2.5 ml desalted on a sephadex (Registered Trade Mark) PD10 column (1.5 cm×8 cm) which had been pre-equilibrated with the homogenization buffer. Protein was eluted using the same buffer. The assay contained, in a total volume of 250 μl, 50 mM Tris-HCl (pH 6.5), 50 mM KCl, 0.05% (w/v) BSA and […] protein. ATP (5 mM) was also included where indicated. The assay was started by the addition of [^14 C] adenosine (500 μM, 0.2 μCi). After incubation at 25° C. for 10 minutes, the reaction was stopped by the addition of 0.25 ml ice cold HClO4 (0.4M). Precipitated protein was removed by centrifugation (13,000 g, 2 minutes) and 0.4 ml of the resulting supernatant applied to phenylsilane bonded silica gel columns (500 mg) which had been previously washed with 2 volumes of methanol and then 2 ml 0.4M HClO4. Samples were eluted with 4 ml 0.4M HClO4. The pH of the eluate was adjusted on ice to between 5.5 and 7.0 with 5M KOH. The neutralised extract was centrifuged (13,000 g, 2 minutes) and evaporated to dryness in a Gyrovap (Registered Trade Mark). The sample was then re-dissolved in 0.5 ml 10 mM HCl and centrifuged (13,000 g, 2 minutes) prior to HPLC analysis. The products were analysed using reverse phase chromatography with a spherisorb (Registered Trade Mark) column (25 cm×0.46 cm), solvent 1: 95:5 10 mM KH2 PO4 : methanol; solvent 2: 88:12 10 mM KH2 PO4 : methanol, pH 5.3, step change at 6 minutes, Flow rate: 1 ml/minute.

plant AMP deaminase = assay: Plant AMP deaminase inhibition assay; type: biochemical, Pea seedlings; details: for IC50: 10 minute preincubation, substrate concentration 640 μM, read-out: 50% inhibition of AMP deaminase activity
Method: (§1) Pea seedlings were excised near soil level, the stems quickly washed with distilled water and then stood upright in a […] containing 2 ml of compound solution or water (control). A section (approx 2 mm) was cut from the base of the stem while it was immersed to prevent air locks from forming in the xylem. The seedlings were incubated in the light at room temperature (approx 20° C.) in a moving air stream. At intervals, individual seedlings were extracted and the levels of AMP deaminase determined by extraction in 2 volumes ice cold citrate buffer (0.1M, pH 7), 0.5 mM dithiothreitol using a pestle and mortar. The homogenate was passed through 6 layers of muslin and loaded onto a sephadex gel filtration column (1.5 cm×8 cm) which had previously been equilibrated with 30 mM citrate (pH 7.1), 50 mM KCl and 0.5% (w/v) BSA (Assay buffer). The protein was eluted using the assay buffer and used directly for the enzyme assay. The assay is based on the release of ammonia (McCullough (1967), Clinica Chimica Acta, 17, 297) and contained in a total volume of 0.5 ml 60 mM citrate buffer (pH 7.1 with 5M NaOH) 100 mM KCl, 0.1% (w/v) BSA and 5 mM AMP. The reaction was started by the addition of 50 μl extract. At 15 minute intervals from 0 to 60 minutes, the reaction was stopped by the addition of 420 μl reagent 1 (0.1M phenol, 0.17 mM sodium nitroprusside) immediately followed by 275 μl reagent 2 (0.125M NaOH, 0.38M Na2 HPO4 and 5 ml HOCl in a total volume of 500 ml). Following incubation for 60 minutes at 55° C., the absorbance of the solutions at 625 nm was determined.
Pea seedlings were grown as described in Test Example 2. The seedlings were harvested close to soil level and homogenized in 2 volumes of ice cold phosphate buffer (pH 7.5) containing 0.1 mM dithiothreitol and 0.4M sucrose using a Waring blender (1 minute, top speed). All of the following operations were carried out at 4° C. The homogenate was filtered through 6 layers of muslin and centrifuged at 100,000 g for 20 minutes to remove cell debris. To the resulting supernatant was added 40% (w/v) ammonium sulphate while stirring constantly. The precipitate was collected by centrifugation (12,000 g, 15 minutes) and dissolved in 30 ml phosphate buffer (pH 7.5), 0.1 mM dithiothreitol then dialyzed overnight against 2 l of the same buffer. Insolubles formed during the overnight dialysis were removed by centrifugation (7,000 g, 10 minutes). The supernatant was applied to a phospho-cellulose column (1.5×8 cm) which had been pre-equilibrated with 0.1M phosphate buffer (pH 7.5). After loading, the column was washed with 14 ml phosphate buffer (0.1M, pH 7.5) and the enzyme eluted with 0.6M phosphate buffer (pH 7.5). Activity was determined using the ammonia release assay described in Test Example 3 above.

[2] = test system: extractable ATP levels in pea seedlings; assay: Measurement of extractable ATP levels; type: in vivo, Peas
Method: Peas were grown as described in Test Example 1 and exposed to carbocyclic coformycin via the transpiration stream as outlined in Test Example 3. Individual seedlings were rapidly frozen in liquid nitrogen. The frozen tissue was ground to a fine powder using a pestle and mortar then 1 ml ice cold 0.4M HClO4 was added. The frozen acid was ground to a fine powder tissue, the mixture allowed to thaw and then incubated on ice for 15 minutes. The extract was centrifuged (4,000 rpm, 5 minutes).
ATP measurements were made using the luciferase assay and a LUMAC Biocounter M2500 (6370 AC Landgraaf, The Netherlands). Samples were diluted 1:10,000 in water and 100 μl was assayed according to the manufacturer's instructions.

Pea seedlings = assay: In planta metabolism of carbocyclic coformycin; type: in vivo; details: 10 μM [3H] compound via the transpiration stream; 4 hours incubation
Method: Pea seedlings were grown as described in Test Example 2, harvested as described in Test Example 3 and then supplied with 10 μM (400 Ci mol^-1) [^3 H] carbocyclic coformycin via the transpiration stream. After incubation periods, pairs of seedlings were rapidly frozen in liquid nitrogen, ground to a fine powder and extracted in 2 ml ice cold 0.4M HClO4. The extracts were processed for HPLC analysis as described in Test Example 2 above except that the final sample was resuspended in 0.5 ml water instead of 10 mM HCl. [^3 H] carbocyclic coformycin and [^3 H] carbocyclic coformycin 5'-phosphate were separated using cation exchange chromatography with a Partisil (Registered Trade Mark) SCX column (8.0 cm×0.46 cm), 0.05M NH4 H2 PO4, pH 2.6; flow rate=2 ml/minute.

[3] = molecular target: T1, calf intestinal mucosa adenosine deaminase (Bos taurus, UniProt P56658); assay: Mammalian adenosine deaminase inhibition assay; type: biochemical
T1 construct: calf intestinal mucosa adenosine deaminase; purchased Sigma Chemical Company Limited; host or cells: calf intestinal mucosa
Method: Mammalian Adenosine Deaminase Inhibition Assay
A suitable source of enzyme is calf intestinal mucosa adenosine deaminase supplied by the Sigma Chemical Company Limited. The assay employed follows the protocol provided by the supplier and measures a decrease in absorption at 265 nm as the substrate adenosine is utilized. A 10 minute preincubation of enzyme and inhibitor prior to addition of the substrate was employed.

AMP deaminase = assay: Extractable levels of AMP deaminase in treated pea seedlings; type: in vivo
Method: as §1, with “At 15 minute intervals from 0 to 60 minutes, the reaction was stopped by the addition of 420 μl reagent 1 (0.1M phenol, 0.17 mM sodium nitroprusside) immediately followed by 275 μl reagent 2 (0.125M NaOH, 0.38M Na2 HPO4 and 5 ml HOCl in a total volume of 500 ml).” left out

T1 sequence (P56658 whole entry): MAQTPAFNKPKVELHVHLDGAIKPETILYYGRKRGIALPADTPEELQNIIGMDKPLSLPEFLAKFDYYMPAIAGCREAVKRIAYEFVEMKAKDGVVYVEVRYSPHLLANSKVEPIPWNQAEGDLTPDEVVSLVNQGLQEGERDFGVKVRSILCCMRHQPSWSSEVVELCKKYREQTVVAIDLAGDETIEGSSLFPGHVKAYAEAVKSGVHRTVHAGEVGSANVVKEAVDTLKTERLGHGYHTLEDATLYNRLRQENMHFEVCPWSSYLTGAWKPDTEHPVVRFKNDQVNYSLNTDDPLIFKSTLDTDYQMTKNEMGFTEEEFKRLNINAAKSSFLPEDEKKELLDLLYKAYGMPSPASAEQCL

Row | Compound | % of radiolabel as ADP [1] [%] | % of radiolabel as AMP [1] [%] | % of radiolabel as ATP [1] [%] | % of radiolabel as IMP [1] [%] | % of radiolabel as inosine [1] [%] | % of radiolabel as adenosine ([1]; 500 µM) [%] | inhibition of plant AMP deaminase (in words) (plant AMP deaminase) | IC50 (plant AMP deaminase) [µM] | ATP levels relative to the control levels ([2]; 100 μM via the transpiration stream, 4 hours treatment, control 333 nmols ATP per gram fresh weight) | rise in extractable levels of ATP (in words) ([2]; in vivo) | major metabolite in planta (Pea seedlings) | inhibition of mammalian adenosine deaminase (in words) [3] | IC50 ([3]; 10 minute preincubation, substrate concentration 60 μM, read-out: 50% inhibition of adenosine deaminase) [µM] | extractable levels of AMP deaminase (in words) (AMP deaminase; applied to pea seedlings via the transpiration stream) | extractable levels of AMP deaminase, % of the control levels (AMP deaminase; treatment for 1 hour via the transpiration stream, control 19 μmols ammonia release per gram fresh weight per minute)
1 | Nc1ncnc2c1ncn2[C@@H]1O[C@H](CO)[C@@H](O)[C@H]1O [[^14 C adenosine, adenosine] | 0 | 0 | 0 | 0 | 0 | 100 |  |  |  |  |  |  |  |  | 
2 | O=P(O)(O)OC[C@H]1C[C@@H](n2cnc3c2N=CNC[C@H]3O)[C@H](O)[C@@H]1O [carbocyclic coformycin 5'-phosphate] |  |  |  |  |  |  | potent inhibitor | 0.02 |  |  |  |  |  |  | 
3 | OC[C@H]1C[C@@H](n2cnc3c2N=CNC[C@H]3O)[C@H](O)[C@@H]1O [carbocyclic coformycin] |  |  |  |  |  |  | relatively poor inhibitor | 120 | approximately twice | remarkable rise | co-chromatographed with authentic carbocyclic coformycin 5'-phosphate | potent inhibitor | 0.025 | rapid decrease | 20-30%
